Laboratory results: patent US9499519B2, “Fused pyrimidine compounds and use thereof” (Medivation Technologies, Inc., priority 2012, dated 2016)
pIC50: −log10 of the molar value. Where “and” joins values, the source holds several entries; their conditions need not be identical. Equal values may be shown once.

Assays:
Assay type in all cases: biochemical
AXL = target: T1, AXL (Homo sapiens, UniProt P30530); test: HotSpot kinase assay: AXL; conditions: 100 nM compound, read-out: % Enzyme Inhibition @ 100 nM AXL
T1 sequence (P30530 26-894): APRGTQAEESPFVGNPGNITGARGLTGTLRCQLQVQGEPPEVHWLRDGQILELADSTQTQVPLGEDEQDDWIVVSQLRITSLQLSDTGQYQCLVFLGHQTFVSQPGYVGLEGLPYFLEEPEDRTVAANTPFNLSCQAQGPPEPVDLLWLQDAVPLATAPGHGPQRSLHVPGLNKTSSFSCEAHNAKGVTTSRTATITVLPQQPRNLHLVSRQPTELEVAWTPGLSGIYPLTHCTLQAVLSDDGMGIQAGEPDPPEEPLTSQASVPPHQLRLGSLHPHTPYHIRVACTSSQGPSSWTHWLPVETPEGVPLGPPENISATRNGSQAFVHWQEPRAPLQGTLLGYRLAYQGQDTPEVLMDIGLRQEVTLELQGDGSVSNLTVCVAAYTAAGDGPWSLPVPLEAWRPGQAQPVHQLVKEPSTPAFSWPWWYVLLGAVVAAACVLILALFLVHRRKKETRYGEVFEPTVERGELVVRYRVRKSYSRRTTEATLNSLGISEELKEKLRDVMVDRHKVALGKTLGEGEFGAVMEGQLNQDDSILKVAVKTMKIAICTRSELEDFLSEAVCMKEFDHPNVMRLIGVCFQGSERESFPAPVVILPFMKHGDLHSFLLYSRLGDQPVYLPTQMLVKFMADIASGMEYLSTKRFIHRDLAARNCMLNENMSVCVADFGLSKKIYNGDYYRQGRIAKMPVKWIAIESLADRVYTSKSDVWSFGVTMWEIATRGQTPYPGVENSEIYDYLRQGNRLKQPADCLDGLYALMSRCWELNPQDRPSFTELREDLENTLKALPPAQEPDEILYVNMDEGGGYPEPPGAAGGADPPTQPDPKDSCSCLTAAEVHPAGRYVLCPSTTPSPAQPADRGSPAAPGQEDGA
Description: Kinase assays were performed using additional compounds against a panel of 4 kinases: AXL; c-Met; c-Mer; and Trk C. Each compound was tested at a concentration of […] in single duplicate mode against the 4 kinases. Compounds were prepared as 10 mM stock solutions in DMSO prior to use in the assay. […] IC50 values and curve fits were obtained using Prism (GraphPad Software).
(§1) The screening was performed using the “HotSpot” assay platform. The assay measures the conversion of a peptide substrate to ^33P-labelled phosphorylated product. Briefly, specific kinase/substrate pairs along with required cofactors were prepared in reaction buffer. Specifically, the substrate was prepared in reaction buffer (20 mM Hepes, pH 7.5; 10 mM MgCl2; 1 mM EGTA; 0.02% Brij35; 0.02 mg/mL BSA; 0.1 mM Na3VO4; 2 mM DTT; 1% DMSO), followed by delivery of any required cofactor to the resulting substrate solution. The corresponding kinase was delivered into the substrate solution and the reaction mixture was mixed gently. Compound was delivered into the reaction mixture, followed 15-20 minutes later by addition of a mixture of ATP (Sigma, St. Louis Mo.) and ^33P ATP (specific activity 0.01 μCi/μL final; Perkin Elmer, Waltham, Mass.) to a final concentration of 10 μM-30 μM to initiate the reaction. […] The percent of enzyme inhibition was calculated based on the percent of remaining kinase activity.

Trk B = Trk B (Homo sapiens, UniProt Q16620); test: HotSpot kinase assay: Trk B; conditions: 100 nM compound, read-out: % Enzyme Inhibition @ 100 nM Trk B
Description: Each compound was tested at a concentration of 0.1 μM in single duplicate mode against the 3 kinases. Compounds were prepared as 10 mM stock solutions in DMSO prior to use in the assay. […] IC50 values and curve fits were obtained using Prism (GraphPad Software).
as §1

Trk C = Trk C (Homo sapiens, UniProt Q16288); test: HotSpot kinase assay: Trk C
IR = target: T2, IR (Homo sapiens, UniProt P06213); test: In vitro IR enzymatic assay (ADP-Glo kinase assay); conditions: activated IR
T2 construct: purchased Millipore 14-803
Description: IC50 values of the compounds of the invention against IGF-1R and IR were measured in vitro using an ADP-Glo kinase assay Kit (Promega). […] Kinase reactions in both assays were conducted at 30° C. for 20 min with increasing concentrations of compounds of the invention.
Additional compounds of the invention were screened against activated IR.

Chain of Trk C (Q16288 32-839): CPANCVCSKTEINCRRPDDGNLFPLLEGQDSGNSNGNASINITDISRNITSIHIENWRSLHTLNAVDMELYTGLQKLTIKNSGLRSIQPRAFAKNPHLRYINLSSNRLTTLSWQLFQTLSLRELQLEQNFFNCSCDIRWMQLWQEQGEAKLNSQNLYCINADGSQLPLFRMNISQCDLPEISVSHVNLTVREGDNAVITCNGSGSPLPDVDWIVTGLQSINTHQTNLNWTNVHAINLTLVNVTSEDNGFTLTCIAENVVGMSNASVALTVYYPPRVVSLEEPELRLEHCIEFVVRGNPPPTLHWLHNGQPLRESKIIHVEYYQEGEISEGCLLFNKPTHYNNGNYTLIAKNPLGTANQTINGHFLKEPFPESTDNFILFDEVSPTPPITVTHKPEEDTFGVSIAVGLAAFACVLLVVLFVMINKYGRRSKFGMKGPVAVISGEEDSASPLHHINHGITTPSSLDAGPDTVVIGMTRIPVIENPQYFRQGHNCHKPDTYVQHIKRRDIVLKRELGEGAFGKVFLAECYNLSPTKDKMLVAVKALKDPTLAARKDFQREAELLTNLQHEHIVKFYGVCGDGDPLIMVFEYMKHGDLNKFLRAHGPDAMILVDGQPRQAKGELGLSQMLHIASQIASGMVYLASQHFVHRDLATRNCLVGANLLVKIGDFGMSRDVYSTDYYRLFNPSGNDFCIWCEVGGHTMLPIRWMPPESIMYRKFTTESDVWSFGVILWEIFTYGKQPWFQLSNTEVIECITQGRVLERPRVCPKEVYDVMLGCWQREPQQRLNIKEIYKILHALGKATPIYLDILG
T2 sequence (P06213 28-1382): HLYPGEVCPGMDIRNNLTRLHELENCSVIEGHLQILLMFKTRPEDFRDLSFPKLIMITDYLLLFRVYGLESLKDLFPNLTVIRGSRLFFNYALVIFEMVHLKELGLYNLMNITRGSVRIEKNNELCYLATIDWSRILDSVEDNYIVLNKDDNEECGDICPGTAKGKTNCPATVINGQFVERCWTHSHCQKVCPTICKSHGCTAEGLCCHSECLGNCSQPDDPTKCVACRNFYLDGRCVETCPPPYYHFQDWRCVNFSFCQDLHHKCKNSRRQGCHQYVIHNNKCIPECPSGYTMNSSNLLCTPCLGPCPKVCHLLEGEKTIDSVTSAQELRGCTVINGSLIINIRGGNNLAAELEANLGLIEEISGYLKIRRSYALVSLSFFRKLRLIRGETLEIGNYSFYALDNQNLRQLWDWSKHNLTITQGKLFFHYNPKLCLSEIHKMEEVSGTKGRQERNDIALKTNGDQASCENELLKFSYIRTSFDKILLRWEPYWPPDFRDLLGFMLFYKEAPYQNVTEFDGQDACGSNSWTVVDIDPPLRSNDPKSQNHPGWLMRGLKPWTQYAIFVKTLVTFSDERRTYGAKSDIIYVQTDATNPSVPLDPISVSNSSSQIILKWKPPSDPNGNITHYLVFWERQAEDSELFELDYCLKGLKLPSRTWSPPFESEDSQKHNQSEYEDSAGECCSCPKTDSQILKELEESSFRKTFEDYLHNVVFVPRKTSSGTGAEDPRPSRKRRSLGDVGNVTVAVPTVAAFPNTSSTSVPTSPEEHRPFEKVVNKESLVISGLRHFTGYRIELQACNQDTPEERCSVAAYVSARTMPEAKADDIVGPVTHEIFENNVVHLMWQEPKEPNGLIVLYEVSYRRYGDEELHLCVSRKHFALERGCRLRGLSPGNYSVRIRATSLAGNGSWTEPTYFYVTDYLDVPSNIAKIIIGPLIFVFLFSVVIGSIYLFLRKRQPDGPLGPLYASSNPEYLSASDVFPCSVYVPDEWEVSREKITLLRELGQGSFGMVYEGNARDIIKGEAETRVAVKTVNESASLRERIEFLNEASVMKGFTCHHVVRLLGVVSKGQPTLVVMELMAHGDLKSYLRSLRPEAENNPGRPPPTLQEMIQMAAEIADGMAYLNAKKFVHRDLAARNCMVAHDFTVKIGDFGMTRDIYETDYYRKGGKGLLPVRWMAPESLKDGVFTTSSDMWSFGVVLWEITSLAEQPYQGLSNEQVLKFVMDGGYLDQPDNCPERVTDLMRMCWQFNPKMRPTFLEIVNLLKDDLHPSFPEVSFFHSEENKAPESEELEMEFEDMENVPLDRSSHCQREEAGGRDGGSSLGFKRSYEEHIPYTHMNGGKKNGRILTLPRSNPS
Chain of Trk B (Q16620 32-822): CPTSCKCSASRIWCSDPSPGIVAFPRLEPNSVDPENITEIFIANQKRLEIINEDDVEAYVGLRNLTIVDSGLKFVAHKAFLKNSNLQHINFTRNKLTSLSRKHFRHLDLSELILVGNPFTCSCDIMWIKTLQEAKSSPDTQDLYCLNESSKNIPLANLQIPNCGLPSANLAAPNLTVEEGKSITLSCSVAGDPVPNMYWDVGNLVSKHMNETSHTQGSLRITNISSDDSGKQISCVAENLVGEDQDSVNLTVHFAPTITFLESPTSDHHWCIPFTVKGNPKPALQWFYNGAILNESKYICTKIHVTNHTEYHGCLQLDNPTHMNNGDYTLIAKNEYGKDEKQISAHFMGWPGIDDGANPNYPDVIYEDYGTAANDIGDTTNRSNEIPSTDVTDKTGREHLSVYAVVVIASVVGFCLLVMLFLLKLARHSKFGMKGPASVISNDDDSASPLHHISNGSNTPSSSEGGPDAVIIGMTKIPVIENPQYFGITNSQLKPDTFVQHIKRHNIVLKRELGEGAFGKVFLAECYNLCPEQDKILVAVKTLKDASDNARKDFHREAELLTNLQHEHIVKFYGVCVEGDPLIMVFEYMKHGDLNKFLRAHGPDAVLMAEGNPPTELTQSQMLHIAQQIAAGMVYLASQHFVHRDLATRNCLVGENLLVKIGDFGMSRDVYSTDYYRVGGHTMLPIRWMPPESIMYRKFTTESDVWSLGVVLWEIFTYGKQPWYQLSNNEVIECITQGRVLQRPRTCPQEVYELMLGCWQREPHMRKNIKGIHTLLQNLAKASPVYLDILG

CC(C)c1cc(Nc2nc(N3CCCC3C(=O)N(C)C)nc3c2CCC3)n[nH]1 (single isomer, unassigned) [Compound 20b, 1-(4-(5-isopropyl-1H-pyrazol-3-ylamino)-6,7-dihydro-5H-cyclopenta[d]pyrimidin-2-yl)-N,N-dimethylpyrrolidine-2-carboxamide]
inhibition at 0.1 µM (AXL): < 39%
inhibition at 0.1 µM (Trk B): < 39%
inhibition at 0.1 µM (Trk C; 100 nM compound, HotSpot, read-out: % Enzyme Inhibition @ 100 nM Trk C): > 60%
pIC50 (Trk C; Trk C): 7.26
selectivity for Trk C inhibition over IGF-1R (Trk C; Trk C over IGF-1R): about 60 fold
selectivity for Trk C inhibition over IR (Trk C; Trk C over IR): about 30 fold
pIC50 (IR): 5.74 and 5.77
